In patent US20070197658A1, “Polyamines and their use as antibacterial and sensitizing agents” (priority 2006, published 2007):
Several values for one entry are separate records, joined by “and”; a condition that tells them apart may be missing. Equal values may be shown once. Where a name gives a salt, the structure may show the parent alone. Read-outs that look alike come from different tables or passages of the source. Bridge positions count the residues as written; N and C are the ends. Square brackets hold non-standard residues; d marks the D form. Peptide text beside a SMILES is read from it. Dab = NCC[C@H](N)C(=O)O

Columns and labels:
E. coli ATCC 9637 [1] = assay: Effect of acylpolyamines on MIC of rifampicin (sensitization); format: cell-based, Escherichia coli; conditions: for Sensitization to Rifampin: E. coli strain 9637 preincubated with 10 μM of compound, MIC of rifampicin
Experimental: E. coli ATCC 9637 was seeded in MH broth in chequerboard format in a 384-well plate containing a constant concentration of compound and varying doses of rifampicin. Bacterial growth was monitored by turbidimetry at 600 nm. PMBN and melittin were used as positive controls. Wells containing no test-compound served as negative control. […] Fold sensitization was calculated as MICRifampicin alone/MICRifampicin+10μM Compound.
Perturbation of the outer membrane permeability barrier greatly sensitizes Gram negative organisms to otherwise impermeable hydrophobic solutes, rifampicin being a classic example To determine the effect of acylpolyamines on the MIC of hydrophobic antibiotic, rifampicin, E. coli strain 9637 was used. Overnight cultures of E. coli grown in MHB preincubated with 10 μM of acylpolyamines were added to serially diluted rifampicin in a 384-well microtiter plate. After incubation at 37° C. overnight, the MIC was determined. Controls included PMBN and melittin (positive) and rifampicin alone (negative). All experiments were run in triplicate.

E. coli ATCC 9637 [2] = assay: microbe, parasite or virus in culture
Experimental: (§1) An equal volume of a suspension of either E. coli ATCC 9637 (FIG. 6A) or S. aureus ATCC 13709 (FIG. 6B) in 2× Mueller-Hinton broth was added using an automated liquid dispensing system to a 384 well plate, and bacterial growth was measured by absorptimetry as described in Materials and Methods.
(§2) In this example, E. coli strain 9637 and S. aureus strain 13709 were procured from ATCC (Manassas, Va.). For IM permeability assays, E. coli ML-35 (ATCC 43827), a lactose permease-deficient strain with constitutive cytoplasmic β-galactosidase activity was used (26). Calcium chloride transformation of E. coli ML-35 was performed using the plasmid vector pBR322 (6), encoding tetracycline and ampicillin resistance genes (Promega, Madison, Wis.). The transformed strain, E. coli ML-35p, selected by ampicillin resistance, was utilized for the OM permeabilization assay. E. coli ML-35p was maintained on trypticase soy agar plates with 50 μg/ml of ampicillin.
(§3) Minimum inhibitory concentrations of the acylpolyamines were determined by broth microdilution method (1) as per NCCLS guidelines. Mid-log phase Mueller-Hinton broth (MHB; non-cation supplemented) cultures of organisms (40 μl; OD600nm adjusted to 0.5 AU, and diluted ten-fold) were added to equal volumes of two-fold serially diluted acylpolyamines in a 384-well microtiter plate with the help of a Biotek Precision 2000 automated microplate pipetting system. The MICs of rifampicin, polymyxin B (PMB), polymyxin B nonapeptide (PMBN), naphthylacetyl spermine trihydrochloride and methoctramine tetrahydrochloride (Sigma, St. Louis, Mo.) were included as reference compounds for comparison of activity. The microtiter plates were sealed and incubated overnight at 37° C. The plates were read at an absorbance of 600 nm. The lowest concentration of an agent inhibiting growth of the organisms was recorded as the MIC.

S. aureus ATCC 13709 = assay: microbe, parasite or virus in culture
Experimental: as §1, §2, §3

CF-1 mice = conditions: preliminary; for subacute toxicity: 100 μg/mouse, subcutaneously, for 15 days; for acute toxicity: up to 1 mg/mouse, one dose subcutaneously
Experimental: Detailed biophysical studies on the characterization of the binding site on albumin, stoichiometry, and dependence of binding affinity on mono-versus bis-acylation and acyl chain length will be published elsewhere.
Clinical signs of acute toxicity were monitored for 48 h following a single injection. In subacute studies, 100 μg of 4e was injected daily in the subcutaneous tissue of the flank region, the sites being alternated every day, for a duration of 15 days. The animals were monitored daily for signs of local irritation, weight loss, and food consumption.

human erythrocytes = conditions: for hemolytic activity in the presence of human serum albumin: physiological concentrations (~650 μM) of human serum albumin
Experimental: Melittin was used as a positive control.
Erythrocyte damage was measured using two different techniques. In the first, hemolysis was quantified using extremely diluted, aged human whole blood such that the effects of the compounds binding to plasma proteins would be negligible, and the hemolytic activity would be magnified because of increased osmotic fragility of the erythrocytes as a consequence of depleted Na^+ K^+ ATPase activity. […] Dilute erythrocyte suspensions were prepared by diluting one-week-old whole blood obtained by venipuncture from healthy human volunteers 1:1000 in isotonic (0.9 g/100 ml) saline solution to which was added graded doses of compound. […] The samples were therefore examined with a Beckman-Coulter Vi-Cell™ Cell Viability Analyzer (Beckman-Coulter, Hialeah, Fla.). This instrument implements an automated intravital trypan blue exclusion method using real-time automated video microscopy. Measurement parameters for erythrocytes were gated appropriately on control erythrocytes to specify thresholds of cell recognition and viability. Data on total number of cells/ml and viable cells/ml were collected through 50 captured images per sample with a counting accuracy of ±3%. In order to examine the effect of plasma proteins on the surface activity, some of the experiments were repeated in the presence of near-physiological concentrations of human serum albumin. […] The second method, consequently, was designed to examine the effects of the compounds on whole blood. […] After incubation at 37° C. for 30 min, the plates were centrifuged at 3000 RPM for 10 min, 80 μl of supernatants transferred to a fresh plate, and the amount of free hemoglobin released into the supernatant was quantified using absorptimetry at 570 nm.
The hemolysis induced by the compounds was quantified using an extremely dilute suspension of washed, aged human erythrocytes under protein-free conditions (isotonic saline). […]

[3] = tested on: E. coli ML-35p (OM) / E. coli ML-35 (IM); format: cell-based, Escherichia coli; conditions: nitrocefin and ONPG hydrolysis
Experimental: OM permeabilizing activity was determined using E. coli ML-35p (parent i^− z^+ y^− ATCC 43827 transformed with pBR322 vector encoding periplasmic β-lactamase); the leakage of periplasmic β-lactamase activity was quantified using nitrocefin as a chromogenic substrate. IM permeabilizing activity was determined using E. coli ML-35 using o-nitrophenyl-β-D-galactopyranoside as the substrate to determine the β-galactosidase activity. In all experiments, PMB, PMBN, and melittin were used as reference compounds.
Nitrocefin (Calbiochem, San Diego, Calif.) was used for the determination of periplasmic β-lactamase activity since PADAC has been reported to be frequently insensitive to β-lactamase activity in clinically relevant strains of Staphylococcus. […] Harvested mid-log phase cultures of E. coli ML-35p (OD600nm adjusted to 0.5 AU) grown in trypticase soy broth were washed thrice with normal saline (0.9%). Nitrocefin was added to a final concentration of 50 μg/ml to the washed bacterial suspension, which was then added to the serially diluted compounds in a 384-well microtiter plate as described earlier. […] After various times of incubation at 37° C., β-lactamase activity was measured spectrophotometrically at 486 nm using an automated Spectramax M2 instrument (Molecular Devices, Sunnyvale, Calif.).
The IM permeability was measured using o-nitrophenyl-β-D-galactopyranoside (“ONPG”; Sigma, St. Louis, Mo.) as the substrate to determine the β-galactosidase activity. […] Washed cultures of E coli ML-35 mixed with 1.5 mM of ONPG in normal saline (0.9%) were added to serially diluted compounds in a 384-well microtiter plate. PMBN and melittin were used as the controls. The production of o-nitrophenol was quantified absorptimetrically at 420 nm after an incubation period of 1 hour at 37° C.
OM and IM permeability were determined respectively from dose-response curves of nitrocefin and ONPG hydrolysis rates as described in Lehrer et al., Concurrent assessment of inner and outer membrane permeabilization and bacteriolysis in E. coli by multiple-wavelength spectrophotometry, J. Immunol.

[4] = 500 μM in 50 mM Tris buffer, pH 7.4, 5% DMSO, 25° C.
Experimental: Charged, amphipathic molecules are surface-active, and can be cytolytic to mammalian cells. […] Samples were at 500 μM concentration in 50 mM Tris buffer, pH 7.4 containing 5% DMSO. The instrument was calibrated with water at 25° C. (72 mN/m) and surface tension values were recorded over a range of bubble surface ages from 100 to 1500 ms at 25° C.

E. coli W3110 = conditions: cited from earlier work
[5] = E. coli ATCC 9637, Mueller-Hinton broth, overnight 37° C.
[6] = S. aureus ATCC 13709, Mueller-Hinton broth, overnight 37° C.
[7] = 10 μM compound, E. coli ATCC 9637

Compound	Sensitization to Rifampin (E. coli ATCC 9637 [1])	MIC (E. coli ATCC 9637 [2]; [5])	MIC (S. aureus ATCC 13709; [6])	also measured
CC(=O)NCCCNCCCNCCCCNCCCN.O=C(O)C(F)(F)F.O=C(O)C(F)(F)F.O=C(O)C(F)(F)F.O=C(O)C(F)(F)F [Compound 4a]	31.25	62.5 μM and 47.3 μg/ml		
CCCCCCCCC(=O)NCCCNCCCNCCCCNCCCN.O=C(O)C(F)(F)F.O=C(O)C(F)(F)F.O=C(O)C(F)(F)F.O=C(O)C(F)(F)F [Compound 4b]	7.81	62.5 μM and 53.4 μg/ml	125 μM and 106.96 μg/ml	
CCCCCCCCCC(=O)NCCCNCCCNCCCCNCCCN.O=C(O)C(F)(F)F.O=C(O)C(F)(F)F.O=C(O)C(F)(F)F.O=C(O)C(F)(F)F [Compound 4c]	7.81	62.5 μM and 54.3 μg/ml	62.5 μM and 54.3 μg/ml	
CCCCCCCCCCCCC(=O)NCCCNCCCNCCCCNCCCN.O=C(O)C(F)(F)F.O=C(O)C(F)(F)F.O=C(O)C(F)(F)F.O=C(O)C(F)(F)F [Compound 4d]	62.5	31.25 μM and 28.9 μg/ml	15.6 μM and 14.4 μg/ml	subacute toxicity (CF-1 mice): not revealed any detectable toxicity; acute toxicity (CF-1 mice): not revealed any detectable toxicity
CCCCCCCCCCCCCCCCC(=O)NCCCNCCCNCCCCNCCCN.O=C(O)C(F)(F)F.O=C(O)C(F)(F)F.O=C(O)C(F)(F)F.O=C(O)C(F)(F)F [Compound 4f]	15.6	62.5 μM and 60.4 μg/ml	15.6 μM and 15.1 μg/ml	hemolysis (human erythrocytes; at 1-5 μM, dilute aged human erythrocytes, protein-free isotonic saline): 100%; hemolytic activity in the presence of human serum albumin (human erythrocytes): completely abrogated; membrane-permeabilizing activity (OM and IM) [3]: highly membrane-active
CCCCCCCCCCCCCCCCCCC(=O)NCCCNCCCNCCCCNCCCN.O=C(O)C(F)(F)F.O=C(O)C(F)(F)F.O=C(O)C(F)(F)F.O=C(O)C(F)(F)F [Compound 4g]		62.5 μM and 62.2 μg/ml	15.6 μM and 15.5 μg/ml	hemolytic activity in the presence of human serum albumin (human erythrocytes): completely abrogated; membrane-permeabilizing activity (OM and IM) [3]: highly membrane-active
CCCCCCCCC(=O)NCCCNCCCNCCCCNCCCNCCCNC(=O)CCCCCCCC.O=C(O)C(F)(F)F.O=C(O)C(F)(F)F.O=C(O)C(F)(F)F.O=C(O)C(F)(F)F [Compound 8a]	0.00381	31.25 μM and 32.9 μg/ml	15.6 μM and 16.4 μg/ml	subacute toxicity (CF-1 mice): not revealed any detectable toxicity; acute toxicity (CF-1 mice): not revealed any detectable toxicity; surface activity [4]: considerably surface active; sensitization activity (MIC rifampicin alone / MIC rifampicin + 10 μM compound) (E. coli ATCC 9637 [1]; [7]): 4096 fold
CCCCCCCCCC(=O)NCCCNCCCNCCCCNCCCNCCCNC(=O)CCCCCCCCC.O=C(O)C(F)(F)F.O=C(O)C(F)(F)F.O=C(O)C(F)(F)F.O=C(O)C(F)(F)F [Compound 8b]	0.00381			surface activity [4]: considerably surface active; sensitization activity (MIC rifampicin alone / MIC rifampicin + 10 μM compound) (E. coli ATCC 9637 [1]; [7]): 4096 fold; MIC in the presence of human serum albumin (E. coli ATCC 9637 [2]; E. coli, HSA 4.5 g/100 ml, 677 μM): 125 µM; attenuation of MIC by human serum albumin (E. coli ATCC 9637 [2]; E. coli, with vs without HSA 4.5 g/100 ml): four-fold; MIC in the presence of human serum albumin (S. aureus ATCC 13709; S. aureus, HSA 4.5 g/100 ml, 677 μM): 15.6 µM; attenuation of MIC by human serum albumin (S. aureus ATCC 13709; S. aureus, with vs without HSA 4.5 g/100 ml): four-fold
CCCCCCCCCCCCCCC(=O)NCCCNCCCNCCCCNCCCNCCCNC(=O)CCCCCCCCCCCCCC.O=C(O)C(F)(F)F.O=C(O)C(F)(F)F.O=C(O)C(F)(F)F.O=C(O)C(F)(F)F [Compound 8d]	15.6	62.5 μM and 76.3 μg/ml	250 μM and 305.3 μg/ml	
CCCCCCCCCCCCCCCCC(=O)NCCCNCCCNCCCCNCCCNCCCNC(=O)CCCCCCCCCCCCCCCC.O=C(O)C(F)(F)F.O=C(O)C(F)(F)F.O=C(O)C(F)(F)F.O=C(O)C(F)(F)F [Compound 8e]	15.6	62.5 μM and 79.4 μg/ml	250 μM and 319.3 μg/ml	
CCCCCCCCCCCCCCCCCCC(=O)NCCCNCCCNCCCCNCCCNCCCNC(=O)CCCCCCCCCCCCCCCCCC.O=C(O)C(F)(F)F.O=C(O)C(F)(F)F.O=C(O)C(F)(F)F.O=C(O)C(F)(F)F [Compound 8f]	15.6	62.5 μM and 83.3 μg/ml	125 μM and 166.7 μg/ml	
COc1ccccc1CNCCCCCCNCCCCCCCCNCCCCCCNCc1ccccc1OC [Methoctramine, methoctramine tetrahydrochloride, reference compound]		312.5 µM		MIC reported by Yasuda et al. (E. coli W3110): 22 μM and 16 mg/l; MIC (E. coli ATCC 9637 [2]; Escherichia coli, ATCC9637): 312 µM and 228 µg/mL; MIC (S. aureus ATCC 13709; Staphylococcus aureus, ATCC13709): 156 µM and 114 µg/mL
Cl.Cl.Cl.NCCCNCCCCNCCCNC(=O)Cc1cccc2ccccc12 [Naphthylacetylspermine, naphthylacetyl spermine trihydrochloride, reference compound]				MIC reported by Yasuda et al. (E. coli W3110; trihydrochloride): > 267 μM and > 128 mg/l; MIC (E. coli ATCC 9637 [2]; E. coli ATCC 9637, Mueller-Hinton broth, overnight 37° C., listed as naphthylacetylspermine, trihydrochloride): 1250 µM; MIC (E. coli ATCC 9637 [2]; E. coli ATCC 9637, Mueller-Hinton broth, overnight 37° C., trihydrochloride): 1250 μM and 599.8 μg/ml; MIC (S. aureus ATCC 13709; S. aureus ATCC 13709, Mueller-Hinton broth, overnight 37° C., trihydrochloride): 1250 μM and 599.8 μg/ml
CC(C)C[C@@H]1NC(=O)[C@@H](Cc2ccccc2)NC(=O)[C@H](CCN)NC(=O)[C@@H](NC(=O)[C@H](CCN)NC(=O)[C@@H](N)[C@@H](C)O)CCNC(=O)[C@H]([C@@H](C)O)NC(=O)[C@H](CCN)NC(=O)[C@H](CCN)NC1=O [PMBN, polymyxin B nonapeptide, reference compound] (H-T[Dab][Dab][Dab][dF]L[Dab][Dab]T; lactam 3-C)		250; (240.7) μg/ml	500; (481.5) μg/ml	MIC of rifampicin in the presence of compound (E. coli ATCC 9637 [1]; [7]): 0.976 µg/mL; sensitization activity (MIC rifampicin alone / MIC rifampicin + 10 μM compound) (E. coli ATCC 9637 [1]; [7]): 16 fold; MIC (E. coli ATCC 9637 [2]; ATCC 9637): 250; (240.7) μM; MIC (S. aureus ATCC 13709; ATCC 13709): 500; (481.5) μM
CO[C@H]1/C=C/O[C@@]2(C)Oc3c(C)c(O)c4c(O)c(c(/C=N/N5CCN(C)CC5)c(O)c4c3C2=O)NC(=O)/C(C)=C\C=C\[C@H](C)[C@H](O)[C@@H](C)[C@@H](O)[C@@H](C)[C@H](OC(C)=O)[C@@H]1C [rifampicin, reference compound]				MIC (E. coli ATCC 9637 [1]; Escherichia coli, ATCC9637, E. coli ATCC 9637, no test compound, read-out: MIC of rifampicin alone): 15.6 µg/mL
Polymyxin B [PMB, reference compound]	0.2	3.9 μM and 5.4 μg/ml	125 μM and 173.2 μg/ml	
